The source of these data is patent US20140005163A1 (NOVARTIS AG, priority 2010, published 2014).

Broadly, the IC50 is the midpoint of a concentration-inhibition curve. As usually defined, the solubility is how much of the substance goes into solution per volume.

One data set has as its target T1, PI3K delta (Homo sapiens, UniProt O00329).
T1 construct: for the full-length p110-d subunit are generated and fused by overlapping PCR; p85(iSH2) fusion partner (see partner chain) (N); His tag (C); made in house; host or cells: baculovirus; Tn5 (Trichoplusia ni) or TiniPro insect cells
Put plainly: PI3K delta kinase assay (Kinase-Glo luminescence). In kind it is biochemical. The essentials:
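Recombinant p85(iSH2)-Gly linker-p110δ full-length construct (BV1060, C-terminal His tag) was used at 10 nM with 10 μg/mL phosphatidylinositol and 1 μM ATP in 10 mM Tris-HCl pH 7.5, 3 mM MgCl2, 50 mM NaCl, 0.05% CHAPS, 1 mM DTT. After 60 min at room temperature, remaining ATP was measured by Kinase-Glo luminescence.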
A general note: In Kinase-Glo more light means more ATP remaining.

For another data set, the target named is T2, mTOR (Homo sapiens, UniProt P42345).
T2 construct: purchased Invitrogen Corporation (Carlsbad/CA, USA) PV4753
T2 sequence (P42345 1360-2549 limits assumed): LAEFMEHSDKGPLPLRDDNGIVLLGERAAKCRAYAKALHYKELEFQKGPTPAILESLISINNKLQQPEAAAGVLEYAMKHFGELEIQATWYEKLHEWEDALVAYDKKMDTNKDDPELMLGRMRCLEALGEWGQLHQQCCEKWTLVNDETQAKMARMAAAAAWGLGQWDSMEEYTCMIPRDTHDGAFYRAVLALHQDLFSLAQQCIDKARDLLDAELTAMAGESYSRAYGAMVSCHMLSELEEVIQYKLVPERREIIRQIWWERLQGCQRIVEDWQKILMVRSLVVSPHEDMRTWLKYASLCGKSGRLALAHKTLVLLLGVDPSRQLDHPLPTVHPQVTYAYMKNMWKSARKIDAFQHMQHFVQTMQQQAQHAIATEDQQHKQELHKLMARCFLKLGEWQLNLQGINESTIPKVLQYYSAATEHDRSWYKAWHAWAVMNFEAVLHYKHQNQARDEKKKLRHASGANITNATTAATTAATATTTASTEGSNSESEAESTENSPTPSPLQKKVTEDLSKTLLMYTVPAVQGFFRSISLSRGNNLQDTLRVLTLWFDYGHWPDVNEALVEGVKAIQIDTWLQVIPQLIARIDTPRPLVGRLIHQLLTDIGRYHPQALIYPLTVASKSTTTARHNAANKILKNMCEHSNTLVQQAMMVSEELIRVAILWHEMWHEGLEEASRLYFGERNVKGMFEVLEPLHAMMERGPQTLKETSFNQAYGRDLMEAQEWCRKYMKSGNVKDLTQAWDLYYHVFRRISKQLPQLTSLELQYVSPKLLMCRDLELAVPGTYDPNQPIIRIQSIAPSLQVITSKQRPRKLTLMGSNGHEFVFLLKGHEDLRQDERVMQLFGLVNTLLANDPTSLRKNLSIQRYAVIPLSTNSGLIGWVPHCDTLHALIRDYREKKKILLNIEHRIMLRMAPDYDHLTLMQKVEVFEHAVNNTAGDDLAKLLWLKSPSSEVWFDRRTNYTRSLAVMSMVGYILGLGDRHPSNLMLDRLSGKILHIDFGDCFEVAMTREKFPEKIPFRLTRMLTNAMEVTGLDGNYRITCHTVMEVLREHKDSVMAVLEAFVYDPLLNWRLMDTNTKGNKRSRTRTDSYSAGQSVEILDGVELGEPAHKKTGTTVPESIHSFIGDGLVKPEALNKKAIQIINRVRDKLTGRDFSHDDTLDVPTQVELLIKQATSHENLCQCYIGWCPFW
The experiment in a line: Biochemical assay for m-TOR by TR-FRET. The following applies: 8 μM ATP, 400 nM GFP-4EBP1, 0.5 nM mTOR. Summed up: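 Enzyme 0.5 nM, GFP-4EBP1 400 nM, ATP 8 μM (all final); 50 mM HEPES pH 7.5, 10 mM MnCl2, 1 mM DTT; rt. Detection: Tb-α-p4EBP1 [pT46] 0.5 nM in EDTA, TR-FRET, 15 min. Reference compound on every plate, 16-point duplicate dilutions.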
A general note: TR-FRET usually uses a lanthanide donor and a delayed reading to cut background.

The next data set can be described thus: Solubility at pH 6.8. The following applies: pH 6.8, aqueous buffer, thermodynamic from solid; read-out: solubility. Type of data set: physicochemical. The essentials: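 Following the procedure of Zhou et al. (2007), compound solubility was determined at pH 6.8.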
In another data set the target is T3, PI3K beta (Homo sapiens, UniProt P42338).
T3 construct: for the full-length p110-b subunit are generated and fused by overlapping PCR; p85(iSH2) fusion partner (see partner chain) (N); His tag (C); made in house; host or cells: baculovirus; Tn5 (Trichoplusia ni) or TiniPro insect cells
T3 sequence (P42338 with tags, fused parts or gaps limits assumed): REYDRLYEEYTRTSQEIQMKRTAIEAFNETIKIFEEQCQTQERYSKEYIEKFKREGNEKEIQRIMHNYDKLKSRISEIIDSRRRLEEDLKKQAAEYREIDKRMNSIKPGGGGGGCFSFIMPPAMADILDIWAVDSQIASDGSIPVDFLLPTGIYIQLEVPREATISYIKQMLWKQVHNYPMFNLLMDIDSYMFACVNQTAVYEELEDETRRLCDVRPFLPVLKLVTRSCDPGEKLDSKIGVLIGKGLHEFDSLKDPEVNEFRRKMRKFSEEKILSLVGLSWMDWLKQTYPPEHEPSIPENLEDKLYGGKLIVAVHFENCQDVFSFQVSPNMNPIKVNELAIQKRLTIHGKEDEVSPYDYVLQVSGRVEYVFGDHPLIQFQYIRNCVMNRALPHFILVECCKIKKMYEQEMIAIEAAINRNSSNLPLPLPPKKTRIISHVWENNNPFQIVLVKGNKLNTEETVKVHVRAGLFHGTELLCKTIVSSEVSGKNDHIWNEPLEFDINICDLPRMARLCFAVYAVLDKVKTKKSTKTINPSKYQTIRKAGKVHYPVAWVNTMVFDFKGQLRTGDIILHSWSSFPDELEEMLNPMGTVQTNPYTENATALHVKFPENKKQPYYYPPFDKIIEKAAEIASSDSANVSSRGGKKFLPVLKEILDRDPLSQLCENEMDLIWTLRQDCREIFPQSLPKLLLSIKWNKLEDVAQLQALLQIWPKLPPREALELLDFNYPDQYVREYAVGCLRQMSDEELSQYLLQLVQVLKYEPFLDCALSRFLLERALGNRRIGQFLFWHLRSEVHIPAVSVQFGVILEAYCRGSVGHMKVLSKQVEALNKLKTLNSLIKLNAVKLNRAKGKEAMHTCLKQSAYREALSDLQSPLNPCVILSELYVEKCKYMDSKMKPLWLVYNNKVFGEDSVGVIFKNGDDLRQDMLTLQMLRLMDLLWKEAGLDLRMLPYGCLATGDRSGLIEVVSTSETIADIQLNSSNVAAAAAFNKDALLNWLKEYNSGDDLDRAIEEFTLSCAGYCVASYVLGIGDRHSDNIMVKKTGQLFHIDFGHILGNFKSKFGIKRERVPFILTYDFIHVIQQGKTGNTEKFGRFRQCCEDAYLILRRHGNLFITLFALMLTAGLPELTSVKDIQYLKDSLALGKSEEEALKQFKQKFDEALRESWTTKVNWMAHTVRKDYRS
Put plainly: PI3K beta kinase assay (Kinase-Glo luminescence). In kind it is biochemical. Summed up: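 IC50 is derived by four-parameter logistic curve fitting of Kinase-Glo luminescence, which measures ATP left after a 60 min room-temperature reaction. Conditions are 25 nM His-tagged p85(iSH2)-p110β, 1 μM ATP and 10 μg/mL bovine liver phosphatidylinositol.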

In brackets after ≈: the same amount, converted by molar mass. A value given as a limit tells only on which side of the number the result lay.

T1 sequence (O00329 with tags, fused parts or gaps limits assumed): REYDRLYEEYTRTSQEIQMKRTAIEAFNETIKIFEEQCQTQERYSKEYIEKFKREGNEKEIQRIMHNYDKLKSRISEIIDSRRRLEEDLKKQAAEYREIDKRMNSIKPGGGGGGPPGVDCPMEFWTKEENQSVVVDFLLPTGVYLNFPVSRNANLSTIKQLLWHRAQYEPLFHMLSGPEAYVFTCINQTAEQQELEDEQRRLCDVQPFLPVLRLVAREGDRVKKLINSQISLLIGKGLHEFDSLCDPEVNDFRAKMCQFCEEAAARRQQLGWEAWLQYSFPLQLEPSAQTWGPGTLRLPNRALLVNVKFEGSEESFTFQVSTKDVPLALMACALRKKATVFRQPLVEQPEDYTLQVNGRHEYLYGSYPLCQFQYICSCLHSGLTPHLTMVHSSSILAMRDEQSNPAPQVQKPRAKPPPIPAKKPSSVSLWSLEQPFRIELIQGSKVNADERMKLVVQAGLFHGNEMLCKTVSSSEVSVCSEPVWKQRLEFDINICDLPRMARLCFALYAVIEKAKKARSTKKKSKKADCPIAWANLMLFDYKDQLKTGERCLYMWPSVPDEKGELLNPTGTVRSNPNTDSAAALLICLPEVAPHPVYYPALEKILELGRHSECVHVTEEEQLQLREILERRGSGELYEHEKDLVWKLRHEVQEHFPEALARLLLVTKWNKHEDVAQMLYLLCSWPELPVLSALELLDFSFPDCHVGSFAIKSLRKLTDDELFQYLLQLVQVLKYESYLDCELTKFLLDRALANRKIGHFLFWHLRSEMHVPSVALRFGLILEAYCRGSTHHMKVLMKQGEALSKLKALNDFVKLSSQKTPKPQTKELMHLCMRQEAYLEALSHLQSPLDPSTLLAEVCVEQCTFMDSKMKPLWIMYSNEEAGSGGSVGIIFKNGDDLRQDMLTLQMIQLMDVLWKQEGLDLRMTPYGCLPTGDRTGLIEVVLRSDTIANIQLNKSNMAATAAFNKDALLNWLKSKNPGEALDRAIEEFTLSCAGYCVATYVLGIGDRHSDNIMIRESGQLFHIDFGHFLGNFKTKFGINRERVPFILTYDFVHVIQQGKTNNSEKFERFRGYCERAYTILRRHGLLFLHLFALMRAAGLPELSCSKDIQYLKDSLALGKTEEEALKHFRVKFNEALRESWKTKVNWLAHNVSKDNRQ

As to `Cc1nn(C)cc1-n1c(=O)n(C)c2cnc3ccc(-c4cncc(C5(C#N)CCC5)c4)cc3c21` [Example 221.1, 1-{5-[1-(1,3-Dimethyl-1H-pyrazol-4-yl)-3-methyl-2-oxo-2,3-dihydro-1H-imidazo[4,5-c]quinolin-8-yl]-pyridin-3-yl}-cyclobutanecarbonitrile], the results for the half-maximal inhibitory concentration (IC50) on PI3K delta, at mTOR and on PI3K beta were 6 nM, 32 nM and 23 nM, respectively. In “Solubility at pH 6.8”, the solubility was determined as 21 µg/mL (≈ 46.7 µM).
As for `Cc1nn(C(C)C)cc1-n1c(=O)n(C)c2cnc3ccc(-c4cncc(N)c4)cc3c21` [Example 45.3, 8-(5-Amino-pyridin-3-yl)-1-(1-isopropyl-3-methyl-1H-pyrazol-4-yl)-3-methyl-1,3-dihydro-imidazo[4,5-c]quinolin-2-one], the IC50 worked out at 10 nM at PI3K delta, 7 nM on mTOR and 169 nM on PI3K beta. Moreover, in the data set “Solubility at pH 6.8”, the solubility came out at 4 µg/mL (≈ 9.67 µM).
As for `CCc1ncc(-c2ccc3ncc4c(c3c2)n(-c2cn(C)nc2C)c(=O)n4C)cc1O` [Example 188, 1-(1,3-Dimethyl-1H-pyrazol-4-yl)-8-(6-ethyl-5-hydroxy-pyridin-3-yl)-3-methyl-1,3-dihydro-imidazo[4,5-c]quinolin-2-one], the IC50 at PI3K delta is 4 nM; at mTOR, < 3 nM; at PI3K beta it was 30 nM. In addition, the solubility in “Solubility at pH 6.8” amounted to 44 µg/mL (≈ 106 µM).
With `CNc1cc(-c2ccc3ncc4c(c3c2)n(-c2cn(C)nc2Cl)c(=O)n4C)cnc1CO` [Example 158.3, 1-(3-Chloro-1-methyl-1H-pyrazol-4-yl)-8-(6-hydroxymethyl-5-methylamino-pyridin-3-yl)-3-methyl-1,3-dihydro-imidazo[4,5-c]quinolin-2-one], the half-inhibitory concentration (IC50) came to 4 nM at PI3K delta, 12 nM on mTOR and 8 nM at PI3K beta. In the data set “Solubility at pH 6.8”, the solubility is 3 µg/mL (≈ 6.67 µM).
Turning to `Cc1nn(C)cc1-n1c(=O)n(C)c2cnc3ccc(-c4cncc(N5CCOCC5)c4)cc3c21` [Example 175.1, 1-(1,3-Dimethyl-1H-pyrazol-4-yl)-3-methyl-8-(5-morpholin-4-yl-pyridin-3-yl)-1,3-dihydro-imidazo[4,5-c]quinolin-2-one], the 50% inhibitory concentration (IC50) was 70 nM at PI3K delta, 6 nM at mTOR and 180 nM on PI3K beta. Also, in “Solubility at pH 6.8”, the solubility was determined as 35 µg/mL (≈ 76.8 µM).
Consider `CCOc1ccc(-c2ccc3ncc4c(c3c2)n(-c2c(C)nn(C)c2C)c(=O)n4C)cc1OCC` [Example 27.2, 8-(3,4-Diethoxy-phenyl)-3-methyl-1-(1,3,5-trimethyl-1H-pyrazol-4-yl)-1,3-dihydro-imidazo[4,5-c]quinolin-2-one], for which the IC50 at PI3K delta stood at 50 nM; on mTOR it was 363 nM; on PI3K beta it was 173 nM. The solubility in “Solubility at pH 6.8” stood at 4 µg/mL (≈ 8.48 µM).
For the molecule `COc1ccc(-c2ccc3ncc4c(c3c2)n(-c2cn(C(C)C)nc2C)c(=O)n4C)cc1OC` [Example 1.5, 8-(3,4-Dimethoxy-phenyl)-1-(1-isopropyl-3-methyl-1H-pyrazol-4-yl)-3-methyl-1,3-dihydro-imidazo[4,5-c]quinolin-2-one], the IC50 is 7 nM at PI3K delta, 61 nM at mTOR and 101 nM on PI3K beta. The solubility in “Solubility at pH 6.8” amounted to 5 µg/mL (≈ 10.9 µM).
Turning to `COc1ncc(-c2ccc3ncc4c(c3c2)n(-c2cn(C)nc2Cl)c(=O)n4C)cc1N` [Example 89, 8-(5-Amino-6-methoxy-pyridin-3-yl)-1-(3-chloro-1-methyl-1H-pyrazol-4-yl)-3-methyl-1,3-dihydro-imidazo[4,5-c]quinolin-2-one], the half-maximal inhibitory concentration (IC50) at PI3K delta worked out at 9 nM; on mTOR, 3 nM; at PI3K beta, 23 nM. Besides, the solubility in the data set “Solubility at pH 6.8” came out at 3 µg/mL (≈ 6.88 µM).
The like results for `Cc1nn(C)cc1-n1c(=O)n(C)c2cnc3ccc(-c4cccc(S(=O)(=O)N5CCCC5)c4)cc3c21` [Example 44, 1-(1,3-Dimethyl-1H-pyrazol-4-yl)-3-methyl-8-[3-(pyrrolidine-1-sulfonyl)-phenyl]-1,3-dihydro-imidazo[4,5-c]quinolin-2-one] were, in that order, 28 nM, 563 nM, 218 nM and 8 µg/mL (≈ 15.9 µM).
In the case of `CCc1ncc(-c2ccc3ncc4c(c3c2)n(-c2cn(C)nc2C)c(=O)n4C)cc1N` [Example 208, 8-(5-Amino-6-ethyl-pyridin-3-yl)-1-(1,3-dimethyl-1H-pyrazol-4-yl)-3-methyl-1,3-dihydro-imidazo[4,5-c]quinolin-2-one], the 50% inhibitory concentration (IC50) was 6 nM at PI3K delta, 7 nM on mTOR and 76 nM on PI3K beta. Further, in “Solubility at pH 6.8”, the solubility worked out at 133 µg/mL (≈ 322 µM).
The like results for `Cc1nn(C)cc1-n1c(=O)n(C)c2cnc3ccc(-c4ccc(C(N)=O)nc4)cc3c21` [Example 14, 5-[1-(1,3-Dimethyl-1H-pyrazol-4-yl)-3-methyl-2-oxo-2,3-dihydro-1H-imidazo[4,5-c]quinolin-8-yl]-pyridine-2-carboxylic acid amide] were, in that order, 34 nM, 6 nM, 130 nM and 53 µg/mL (≈ 128 µM).
As to `CCOc1ncc(-c2ccc3ncc4c(c3c2)n(-c2cn(C)nc2C)c(=O)n4C)cc1NC(C)=O` [Example 65, N-{5-[1-(1,3-Dimethyl-1H-pyrazol-4-yl)-3-methyl-2-oxo-2,3-dihydro-1H-imidazo[4,5-c]quinolin-8-yl]-2-ethoxy-pyridin-3-yl}-acetamide], the values for the IC50 at PI3K delta and on mTOR were 175 nM and 58 nM, respectively. Moreover, the solubility in “Solubility at pH 6.8” came to 31 µg/mL (≈ 65.7 µM).
On to `CO[C@@H]1CCN(c2ccc(-c3ccc4ncc5c(c4c3)n(-c3cn(C)nc3C)c(=O)n5C)cn2)C1` [Example 213.1, 1-(1,3-Dimethyl-1H-pyrazol-4-yl)-8-[6-((R)-3-methoxy-pyrrolidin-1-yl)-pyridin-3-yl]-3-methyl-1,3-dihydro-imidazo[4,5-c]quinolin-2-one], for which the IC50 was found to be 691 nM on PI3K delta and 373 nM at mTOR. Also, the solubility in the data set “Solubility at pH 6.8” came out at 217 µg/mL (≈ 462 µM).
For the molecule `Cc1nn(C)cc1-n1c(=O)n(C)c2cnc3ccc(-c4ccc(OCCCO)nc4)cc3c21` [Example 108, 1-(1,3-Dimethyl-1H-pyrazol-4-yl)-8-[6-(3-hydroxy-propoxy)-pyridin-3-yl]-3-methyl-1,3-dihydro-imidazo[4,5-c]quinolin-2-one], the figures for the half-inhibitory concentration (IC50) on PI3K delta and at mTOR were 556 nM and 60 nM, respectively. The solubility in “Solubility at pH 6.8” is 32 µg/mL (≈ 72 µM).
For the molecule `CCNc1ncc(-c2ccc3ncc4c(c3c2)n(-c2c(C)nn(C)c2C)c(=O)n4C)cc1COC` [Example 206.2, 8-(6-Ethylamino-5-methoxymethyl-pyridin-3-yl)-3-methyl-1-(1,3,5-trimethyl-1H-pyrazol-4-yl)-1,3-dihydro-imidazo[4,5-c]quinolin-2-one], the IC50 on PI3K delta came out at 57 nM; at PI3K beta, 432 nM. In “Solubility at pH 6.8”, the solubility was > 472 µg/mL.
Take `Cc1nn(CC(=O)N2CCC2)cc1-n1c(=O)n(C)c2cnc3ccc(-c4cnc(N5CCCC5)nc4)cc3c21` [Example 247.2, 1-[1-(2-Azetidin-1-yl-2-oxo-ethyl)-3-methyl-1H-pyrazol-4-yl]-3-methyl-8-(2-pyrrolidin-1-yl-pyrimidin-5-yl)-1,3-dihydro-imidazo[4,5-c]quinolin-2-one]: the IC50 was found to be 794 nM on PI3K delta and 12 nM on mTOR. Also, the solubility in “Solubility at pH 6.8” amounted to 56 µg/mL (≈ 107 µM).
The like results for `Cc1nn(C)cc1-n1c(=O)n(C)c2cnc3ccc(-c4ccc(-n5cccn5)cc4)cc3c21` [Example 51.1, 1-(1,3-Dimethyl-1H-pyrazol-4-yl)-3-methyl-8-(4-pyrazol-1-yl-phenyl)-1,3-dihydro-imidazo[4,5-c]quinolin-2-one] were, in that order, 118 nM, 11 nM and 5 µg/mL (≈ 11.5 µM).
As for `CCOCc1ncc(-c2ccc3ncc4c(c3c2)n(-c2cn(C)nc2C)c(=O)n4C)cc1OC` [Example 196.2, 1-(1,3-Dimethyl-1H-pyrazol-4-yl)-8-(6-ethoxymethyl-5-methoxy-pyridin-3-yl)-3-methyl-1,3-dihydro-imidazo[4,5-c]quinolin-2-one], the IC50 at PI3K delta came out at 160 nM; on mTOR it was 193 nM. Besides, the solubility in “Solubility at pH 6.8” was > 459 µg/mL.
As for `CCOc1ccc(-c2ccc3ncc4c(c3c2)n(-c2cn(CC(=O)N(C)C)nc2C)c(=O)n4C)cn1` [Example 3.9, 2-{4-[8-(6-Ethoxy-pyridin-3-yl)-3-methyl-2-oxo-2,3-dihydro-imidazo[4,5-c]quinolin-1-yl]-3-methyl-pyrazol-1-yl}-N,N-dimethyl-acetamide], the values for the IC50 at PI3K delta and at mTOR were 112 nM and 11 nM, respectively. Moreover, the solubility in the data set “Solubility at pH 6.8” was 65 µg/mL (≈ 134 µM).
